# In patent US12186283B2, “Bismuth-thiol compositions and methods of use” (Microbion Corporation, priority 2018, dated 2025):
# Like-named read-outs stand apart in the source and are kept apart here.
# Assays:
# Pseudomonas aeruginosa [1] = settings: P. aeruginosa ATCC 27853, QC organism; cited from earlier work
# Escherichia coli = test: Broth microdilution MIC (Example 12)
# P. aeruginosa [2] = test: Broth microdilution MIC (Example 10)
# P. aeruginosa [3] = settings: P. aeruginosa isolate 103, CLSI QC range in parenthesis, cited from earlier work
# [4] = system: Burkholderia cepacia complex; test: Broth microdilution MIC (Example 10); settings: initial MIC testing
# Acinetobacter baumannii = test: Broth microdilution MIC (Example 12)
# Pseudomonas aeruginosa [5] = test: Broth microdilution MIC (Example 12)
# Klebsiella pneumoniae = test: Broth microdilution MIC (Example 12)
# [6] = system: Burkholderia cepacia complex; test: Checkerboard FIC assay, BisEDT with CF agents (Example 10); format: cell-based, Burkholderia spp.; settings: B. cenocepacia isolate 0548; agent alone, as observed during FIC testing
structure (smiles),measurement,setting,value
NCC[C@H](O)C(=O)N[C@@H]1C[C@H](N)[C@@H](O[C@H]2O[C@H](CN)[C@@H](O)[C@H](O)[C@H]2O)[C@H](O)[C@H]1O[C@H]1O[C@H](CO)[C@@H](O)[C@H](N)[C@H]1O [AMK],"MIC, QC range",Pseudomonas aeruginosa [1],(1-4) μg/mL
same,MIC,"Escherichia coli; E. coli ATCC 25922, QC organism",1 µg/mL
same,MIC,"Escherichia coli; E. coli ATCC 35218, QC organism",1 µg/mL
same,MIC,"Escherichia coli; Escherichia coli ATCC 35218, ESBL",1 µg/mL
same,MIC,"Escherichia coli; Escherichia coli ATCC BAA-2471, NDM",64 µg/mL
same,MIC,"Escherichia coli; Escherichia coli CDC 114, ESBL/KPC",1 µg/mL
same,MIC,"Escherichia coli; Escherichia coli CDC 118, ESBL/NDM",>64 µg/mL
same,MIC,"Escherichia coli; Escherichia coli CDC 435, NDM",>64 µg/mL
same,MIC,"Escherichia coli; Escherichia coli CDC 451, KPC",4 µg/mL
same,MIC,"Escherichia coli; Escherichia coli CDC 503, ESBL/NDM",>64 µg/mL
same,MIC,"Escherichia coli; Escherichia coli MMX 5745, KPC",0.5 µg/mL
same,MIC,"Escherichia coli; Escherichia coli MMX 5755, ESBL",16 µg/mL
same,MIC,"Escherichia coli; Escherichia coli MMX 5756, ESBL",64 µg/mL
same,MIC,"Escherichia coli; Escherichia coli MMX 5758, ESBL",1 µg/mL
same,MIC,"P. aeruginosa [2]; P. aeruginosa isolate 103 (ATCC 25922), QC strain, initial MIC testing",2 µg/mL
same,MIC,"P. aeruginosa [2]; P. aeruginosa isolate 103 (ATCC 25922), during FIC testing, each agent tested alone for QC, one replicate",4 µg/mL
same,MIC,"P. aeruginosa [2]; P. aeruginosa isolate 1497 (TOB-R, AMK-R, CIP-I, AZT-R, COL-R), initial MIC testing",64 µg/mL
same,MIC,"P. aeruginosa [2]; P. aeruginosa isolate 1530 (TOB-R, AMK-R, CIP-R), initial MIC testing",64 µg/mL
same,MIC,"P. aeruginosa [2]; P. aeruginosa isolate 1553 (TOB-R, AMK-R, CIP-R), initial MIC testing",64 µg/mL
same,MIC,"P. aeruginosa [2]; P. aeruginosa isolate 6322 (MEM-R, TOB-R, AMK-R, CIP-R, AZT-R), initial MIC testing",64 µg/mL
same,MIC,"P. aeruginosa [2]; P. aeruginosa isolate 6977 (MEM-I, TOB-R, CIP-R, AZT-I), initial MIC testing",16 µg/mL
same,MIC,"P. aeruginosa [2]; P. aeruginosa isolate 7745 (MEM-R, CIP-R, AZT-R), initial MIC testing",4 µg/mL
same,MIC,"P. aeruginosa [2]; P. aeruginosa isolate 7754 (MEM-R, TOB-R, CIP-R, AZT-I), initial MIC testing",8 µg/mL
same,MIC,"P. aeruginosa [2]; P. aeruginosa isolate 7762 (MEM-I, CIP-I), initial MIC testing",8 µg/mL
same,MIC,"P. aeruginosa [2]; P. aeruginosa isolate 7871 (MEM-R, AZT-I), initial MIC testing",2 µg/mL
same,MIC,"P. aeruginosa [2]; P. aeruginosa isolate 7874, initial MIC testing",2 µg/mL
same,MIC,"P. aeruginosa [2]; P. aeruginosa isolate 7886 (MEM-R, CIP-R, AZT-R), initial MIC testing",8 µg/mL
same,MIC,"P. aeruginosa [2]; P. aeruginosa isolate 8797 (MEM-R, TOB-R, AMK-R, CIP-R, AZT-R, COL-R), initial MIC testing",>256 µg/mL
same,MIC,"P. aeruginosa [2]; P. aeruginosa isolate 9108 (CIP-R, AZT-I), initial MIC testing",4 µg/mL
same,"MIC, CLSI QC range",P. aeruginosa [3]; Table 24,(1-4) μg/mL
same,"MIC, CLSI QC range",P. aeruginosa [3]; Table 26,(1-4) μg/mL
same,MIC,[4]; B. cenocepacia isolate 0548 (CIP-R),256 µg/mL
same,MIC,[4]; B. cenocepacia isolate 1631,256 µg/mL
same,MIC,[4]; B. cenocepacia isolate 1783,256 µg/mL
same,MIC,[4]; B. cenocepacia isolate 8555,256 µg/mL
same,MIC,[4]; B. cepacia isolate 0546,64 µg/mL
same,MIC,[4]; B. cepacia isolate 1793,64 µg/mL
same,MIC,[4]; B. cepacia isolate 9040,8 µg/mL
same,MIC,[4]; B. multivorans isolate 5665 (CIP-I),256 µg/mL
same,MIC,"Acinetobacter baumannii; Acinetobacter baumannii CDC 273, ESBL/OXA",>64 µg/mL
same,MIC,"Acinetobacter baumannii; Acinetobacter baumannii CDC 274, ESBL/OXA",16 µg/mL
same,MIC,"Acinetobacter baumannii; Acinetobacter baumannii CDC 275, ESBL/OXA",>64 µg/mL
same,MIC,"Acinetobacter baumannii; Acinetobacter baumannii CDC 277, ESBL/OXA",16 µg/mL
same,MIC,"Acinetobacter baumannii; Acinetobacter baumannii CDC 307, OXA",>64 µg/mL
same,MIC,"Acinetobacter baumannii; Acinetobacter baumannii CDC 308, ESBL/OXA",>64 µg/mL
same,MIC,"Acinetobacter baumannii; Acinetobacter baumannii CDC 311, OXA",>64 µg/mL
same,MIC,"Acinetobacter baumannii; Acinetobacter baumannii CDC 312, OXA",1 µg/mL
same,MIC,"Acinetobacter baumannii; Acinetobacter baumannii CDC 313, ESBL/OXA",4 µg/mL
same,MIC,"Acinetobacter baumannii; Acinetobacter baumannii NCTC 13304, OXA",0.5 µg/mL
same,MIC,"Pseudomonas aeruginosa [5]; P. aeruginosa ATCC 27853, QC organism",2 µg/mL
same,MIC,"Pseudomonas aeruginosa [5]; Pseudomonas aeruginosa CDC 230, VIM/OXA",>64 µg/mL
same,MIC,"Pseudomonas aeruginosa [5]; Pseudomonas aeruginosa CDC 231, KPC/OXA",8 µg/mL
same,MIC,"Pseudomonas aeruginosa [5]; Pseudomonas aeruginosa CDC 246, NDM/OXA",>64 µg/mL
same,MIC,"Pseudomonas aeruginosa [5]; Pseudomonas aeruginosa CDC 250, NDM/OXA",>64 µg/mL
same,MIC,"Pseudomonas aeruginosa [5]; Pseudomonas aeruginosa CDC 356, KPC",2 µg/mL
same,MIC,"Pseudomonas aeruginosa [5]; Pseudomonas aeruginosa CDC 439, IMP",>64 µg/mL
same,MIC,"Pseudomonas aeruginosa [5]; Pseudomonas aeruginosa CDC 444, VIM",>64 µg/mL
same,MIC,"Pseudomonas aeruginosa [5]; Pseudomonas aeruginosa CDC 457, VIM",2 µg/mL
same,MIC,"Pseudomonas aeruginosa [5]; Pseudomonas aeruginosa CDC 516, KPC/AmpC",2 µg/mL
same,MIC,"Pseudomonas aeruginosa [5]; Pseudomonas aeruginosa CDC 518, KPC/AmpC",16 µg/mL
same,MIC,"Klebsiella pneumoniae; K. pneumoniae ATCC BAA-1705, QC organism",16 µg/mL
same,MIC,"Klebsiella pneumoniae; Klebsiella pneumoniae ATCC BAA-1705, ESBL/KPC",16 µg/mL
same,MIC,"Klebsiella pneumoniae; Klebsiella pneumoniae CDC 112, KPC",16 µg/mL
same,MIC,"Klebsiella pneumoniae; Klebsiella pneumoniae CDC 113, ESBL/KPC",16 µg/mL
same,MIC,"Klebsiella pneumoniae; Klebsiella pneumoniae CDC 115, ESBL/KPC",0.5 µg/mL
same,MIC,"Klebsiella pneumoniae; Klebsiella pneumoniae CDC 120, ESBL/KPC",16 µg/mL
same,MIC,"Klebsiella pneumoniae; Klebsiella pneumoniae CDC 126, ESBL/KPC",2 µg/mL
same,MIC,"Klebsiella pneumoniae; Klebsiella pneumoniae CDC 135, ESBL/VIM",16 µg/mL
same,MIC,"Klebsiella pneumoniae; Klebsiella pneumoniae CDC 138, ESBL/NDM",>64 µg/mL
same,MIC,"Klebsiella pneumoniae; Klebsiella pneumoniae CDC 158, ESBL/NDM/OXA",2 µg/mL
same,MIC,"Klebsiella pneumoniae; Klebsiella pneumoniae MMX 9029, ESBL",0.5 µg/mL
